Common to all, as to test: Post-emergence herbicidal action, greenhouse pot trial
Holding throughout (assay type): in vivo

Assay [1] has as its system Echinochloa crus-galli (ECHCG). The note with it: visual rating after about 3 weeks; for pest or weed control at 320 g/ha: read-out: Post-emergence effect at 320 g/ha against ECHCG in %. The gist of the method: (§1)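 Greenhouse-grown plants, sown in sandy loam, sprayed at the one-leaf stage (2–3 weeks after sowing) with WP or EC formulations in water plus 0.5% additive, 600 l/ha. Rates of 320 g/ha or lower. Visual rating after about 3 weeks versus untreated controls (100% = dead, 0% = as control).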

Assay [2] has as its system Polygonum convolvulus (POLCO). The note with it: Fallopia convolvulus, 504 h, visual rating after about 3 weeks; for pest or weed control at 80 g/ha: read-out: Post-emergence effect at 80 g/ha against POLCO in %; for pest or weed control at 320 g/ha: read-out: Post-emergence effect at 320 g/ha against POLCO in %. The gist of the method:
as §1

In assay [3] the test system is Pharbitis purpurea (PHBPU). The note with it: visual rating after about 3 weeks; for pest or weed control at 80 g/ha / pest or weed control at 320 g/ha: Ipomoea purpurea, 504 h; for pest or weed control at 80 g/ha: read-out: Post-emergence effect at 80 g/ha against PHBPU in %; for pest or weed control at 320 g/ha: read-out: Post-emergence effect at 320 g/ha against PHBPU in %. The gist of the method: as §1

For the next assay, the system named is Veronica persica (VERPE). The note with it: visual rating after about 3 weeks; for pest or weed control at 320 g/ha: Veronica persica, 504 h, read-out: Post-emergence effect at 320 g/ha against VERPE in %. An outline of the steps: as §1
The subject of the next assay is Setaria viridis (SETVI). The note with it: visual rating after about 3 weeks; for pest or weed control at 320 g/ha: Setaria viridis, 504 h, read-out: Post-emergence effect at 320 g/ha against SETVI in %. An outline of the steps: as §1
A further assay concerns Lolium rigidum (LOLRI). To be noted: visual rating after about 3 weeks; for pest or weed control at 320 g/ha: Lolium rigidum, 504 h, read-out: Post-emergence effect at 320 g/ha against LOLRI in %. The gist of the method: as §1
Assay [4] deals with Digitaria sanguinalis (DIGSA). The note with it: visual rating after about 3 weeks; for pest or weed control at 320 g/ha: Digitaria sanguinalis, 504 h, read-out: Post-emergence effect at 320 g/ha against DIGSA in %. The gist of the method: as §1
Another assay relates to Viola tricolor (VIOTR). To be noted: for pest or weed control at 20 g/ha / pest or weed control at 80 g/ha / pest or weed control at 320 g/ha: Viola tricolor, 504 h, read-out: Post-emergence effect against VIOTR. An outline of the steps:
as §1

For the next assay, the system named is Bassia scoparia (KCHSC). The note with it: for pest or weed control at 80 g/ha / pest or weed control at 320 g/ha: Bassia scoparia, 504 h, read-out: Post-emergence effect against KCHSC; for Post-emergence effect at 20 g/ha against KCHSC in %: visual rating after about 3 weeks. The gist of the method: as §1
For assay [5], the system named is Abutilon theophrasti (ABUTH). To be noted: visual rating after about 3 weeks; for pest or weed control at 80 g/ha / pest or weed control at 320 g/ha: Abutilon theophrasti, 504 h; for pest or weed control at 80 g/ha: read-out: Post-emergence effect at 80 g/ha against ABUTH in %; for pest or weed control at 320 g/ha: read-out: Post-emergence effect at 320 g/ha against ABUTH in %. An outline of the steps:
as §1

The next assay deals with Avena fatua (AVEFA). The note with it: visual rating after about 3 weeks; for pest or weed control at 320 g/ha: Avena fatua, 504 h, read-out: Post-emergence effect at 320 g/ha against AVEFA in %. An outline of the steps: as §1
Assay [6] relates to Amaranthus retroflexus (AMARE). To be noted: visual rating after about 3 weeks; for pest or weed control at 80 g/ha / pest or weed control at 320 g/ha: Amaranthus retroflexus, 504 h; for pest or weed control at 80 g/ha: read-out: Post-emergence effect at 80 g/ha against AMARE in %; for pest or weed control at 320 g/ha: read-out: Post-emergence effect at 320 g/ha against AMARE in %. The gist of the method: as §1

The subject of assay [7] is Matricaria inodora (MATIN). The note with it: Tripleurospermum inodorum, 504 h, visual rating after about 3 weeks; for pest or weed control at 80 g/ha: read-out: Post-emergence effect at 80 g/ha against MATIN in %; for pest or weed control at 320 g/ha: read-out: Post-emergence effect at 320 g/ha against MATIN in %. The gist of the method: as §1
Assay [8] concerns Alopecurus myosuroides (ALOMY). The note with it: visual rating after about 3 weeks. An outline of the steps:
as §1

Where [9] appears, read: Echinochloa crus-galli, 504 h, 320 g/ha.

Turning to `CSC(Oc1nn(-c2ncccc2F)c(-c2cncc(F)c2)c1Br)C(=O)O` (stereo not shown) [Example I-42], the pest or weed control at 320 g/ha in assay [1] (setting [9]) came out at 90%; in assay [2], 90%; in assay [3], 90%; in the assay with Veronica persica (VERPE), 80%; in the assay on Setaria viridis (SETVI), 90%; in the assay on Lolium rigidum (LOLRI) (320 g/ha), 90%. Besides, the pest or weed control at 320 g/ha in assay [4] (320 g/ha) came out at 90%; with Viola tricolor (VIOTR) (320 g/ha), 90%; with Bassia scoparia (KCHSC), 90%; in [5] it was 90%; in the assay on Avena fatua (AVEFA), 100%; in [6], 90%. Also, the pest or weed control at 320 g/ha in assay [7] was 90%. For the same molecule, the pest or weed control at 80 g/ha in [2] is 80%; in assay [3] it was 80%; in the assay on Viola tricolor (VIOTR), 90%; in the assay with Bassia scoparia (KCHSC) it was 90%; in [5], 80%; in [6], 90%. The pest or weed control at 80 g/ha in [7] worked out at 80%. Also, the “Post-emergence effect at 20 g/ha against PHBPU in %” value in [3] (20 g/ha) came to 80%. Moreover, the “Post-emergence effect at 80 g/ha against DIGSA in %” value in assay [4] is recorded as 80%. Moreover, in the assay on Viola tricolor (VIOTR), the pest or weed control at 20 g/ha was 90%.

`CCOC(=O)C(Oc1nn(-c2ccccc2F)c(-c2ccc(F)nc2)c1Br)SC` (single isomer, unassigned) [Example I-40]: the “Post-emergence effect at 20 g/ha against ECHCG in %” value in assay [1] (20 g/ha) came out at 80%. The “Post-emergence effect at 80 g/ha against ECHCG in %” value in assay [1] (80 g/ha) was determined as 80%. Also, in assay [1] (320 g/ha), the “Post-emergence effect at 320 g/ha against ECHCG in %” value was 90%. In addition, the “Post-emergence effect at 20 g/ha against ALOMY in %” value in assay [8] (20 g/ha) amounted to 80%. Moreover, the “Post-emergence effect at 80 g/ha against ALOMY in %” value in assay [8] (80 g/ha) was found to be 80%. In addition, the “Post-emergence effect at 320 g/ha against ALOMY in %” value in assay [8] (320 g/ha) is 80%. For the same molecule, the “Post-emergence effect at 20 g/ha against VERPE in %” value in the assay on Veronica persica (VERPE) (20 g/ha) is listed as 80%. For the same molecule, in the assay with Veronica persica (VERPE), the “Post-emergence effect at 80 g/ha against VERPE in %” value came to 80% and the pest or weed control at 320 g/ha was determined as 80%. Moreover, in the assay with Lolium rigidum (LOLRI) (20 g/ha), the “Post-emergence effect at 20 g/ha against LOLRI in %” value is on record as 80%. In addition, the “Post-emergence effect at 80 g/ha against LOLRI in %” value in the assay on Lolium rigidum (LOLRI) (80 g/ha) was 80%. In the assay with Lolium rigidum (LOLRI) (320 g/ha), the “Post-emergence effect at 320 g/ha against LOLRI in %” value turned out to be 90%. In assay [4] (20 g/ha), the “Post-emergence action at 20 g/ha against DIGSA in %” value was determined as 90%. Also, the “Post-emergence effect at 80 g/ha against DIGSA in %” value in assay [4] was determined as 90%. Besides, the “Post-emergence effect at 320 g/ha against DIGSA in %” value in [4] (320 g/ha) is listed as 90%. The “Post-emergence effect against VIOTR” value with Viola tricolor (VIOTR) (320 g/ha) amounted to 80%. In the assay on Bassia scoparia (KCHSC), the “Post-emergence effect at 20 g/ha against KCHSC in %” value was 80%, the pest or weed control at 80 g/ha came to 90% and the pest or weed control at 320 g/ha was 90%. For the same molecule, the “Post-emergence effect at 20 g/ha against AVEFA in %” value in the assay with Avena fatua (AVEFA) (20 g/ha) was determined as 80%. For the same molecule, in the assay on Avena fatua (AVEFA) (80 g/ha), the “Post-emergence effect at 80 g/ha against AVEFA in %” value is reported as 90%. The pest or weed control at 320 g/ha with Avena fatua (AVEFA) was 90%.

On to `CCOC(=O)C(Oc1nn(-c2ncccc2F)c(-c2cncc(F)c2)c1C1CC1)SC` (stereo not shown) [Example I-41], for which the pest or weed control at 320 g/ha in assay [1] (setting [9]) came out at 90%; in assay [2], 90%; in assay [8] (Alopecurus myosuroides, 504 h, 320 g/ha, read-out: Post-emergence effect at 320 g/ha against ALOMY in %), 80%; in [3] it was 80%; with Veronica persica (VERPE) it was 80%; with Setaria viridis (SETVI) it was 90%. Further, the pest or weed control at 320 g/ha came out at 90% in the assay on Viola tricolor (VIOTR) (320 g/ha); 90% with Bassia scoparia (KCHSC); 90% in assay [5]; 100% in the assay with Avena fatua (AVEFA); 90% in assay [6]; 90% in assay [7]. Also, the pest or weed control at 80 g/ha amounted to 80% in assay [2]; 90% in the assay with Viola tricolor (VIOTR); 90% in assay [5]; 90% in assay [6]; 80% in assay [7]. In the assay with Viola tricolor (VIOTR), the pest or weed control at 20 g/ha turned out to be 90%. In addition, the “Post-emergence action at 20 g/ha against ABUTH in %” value in [5] amounted to 80%. For the same molecule, in assay [6], the “Post-emergence effect at 20 g/ha against AMARE in %” value was found to be 80%.

Consider `COC(=O)C(Oc1nn(-c2ncccc2F)c(-c2cncc(F)c2)c1C1CC1)SC` (stereo not shown) [Example I-66], for which the pest or weed control at 320 g/ha turned out to be 90% in assay [1] (setting [9]); 80% in assay [2]; 90% in assay [3]; 90% in the assay with Veronica persica (VERPE); 80% in the assay on Setaria viridis (SETVI); 90% in the assay on Lolium rigidum (LOLRI) (320 g/ha). In addition, the pest or weed control at 320 g/ha in assay [4] (320 g/ha) came out at 80%; in the assay with Viola tricolor (VIOTR) (320 g/ha) it was 90%; with Bassia scoparia (KCHSC) it was 90%; in assay [5], 90%; with Avena fatua (AVEFA), 80%; in [6], 90%. Also, the pest or weed control at 320 g/ha in assay [7] was found to be 90%. Also, the pest or weed control at 80 g/ha came out at 80% in assay [2]; 90% with Viola tricolor (VIOTR); 80% in [5]; 90% in assay [6]; 80% in [7]. Also, the “Post-emergence effect at 80 g/ha against VERPE in %” value with Veronica persica (VERPE) came to 90%. The pest or weed control at 20 g/ha in the assay with Viola tricolor (VIOTR) is 90%.

With `CCOC(=O)C(Oc1nn(-c2ncccc2F)c(-c2cncc(F)c2)c1Br)SC` (stereo not shown) [Example I-39], the pest or weed control at 80 g/ha in assay [1] (Echinochloa crus-galli, 504 h, 80 g/ha, read-out: Post-emergence effect at 80 g/ha against ECHCG in %) came to 90%; in assay [2] it was 80%; in assay [3] it was 80%; with Viola tricolor (VIOTR), 80%; in the assay on Bassia scoparia (KCHSC) it was 90%; in assay [5], 90%. Also, the pest or weed control at 80 g/ha in assay [6] and in assay [7] was 80% each time. Besides, the pest or weed control at 320 g/ha in assay [1] (setting [9]) came to 90%; in [2], 80%; in assay [3], 90%; in the assay with Veronica persica (VERPE), 80%; with Setaria viridis (SETVI), 90%; in the assay on Lolium rigidum (LOLRI) (320 g/ha) it was 90%. The pest or weed control at 320 g/ha (in [4] (320 g/ha); in the assay with Viola tricolor (VIOTR) (320 g/ha); in the assay on Bassia scoparia (KCHSC); in assay [5]; in the assay on Avena fatua (AVEFA); in assay [6]) was 90% in each case. The pest or weed control at 320 g/ha in assay [7] came to 90%. For the same molecule, in the assay on Setaria viridis (SETVI) (80 g/ha), the “Post-emergence effect at 80 g/ha against SETVI in %” value was 90%. In addition, in assay [4], the “Post-emergence effect at 80 g/ha against DIGSA in %” value is 80%. Also, in the assay on Viola tricolor (VIOTR), the pest or weed control at 20 g/ha worked out at 80%. Further, the “Post-emergence effect at 20 g/ha against KCHSC in %” value in the assay with Bassia scoparia (KCHSC) is listed as 80%. Moreover, the “Post-emergence action at 20 g/ha against ABUTH in %” value in assay [5] worked out at 80%. In assay [6], the “Post-emergence effect at 20 g/ha against AMARE in %” value stood at 80%.
